Data taken from ChEMBL document CHEMBL4219048, “Identification of cytotoxic, glutathione-reactive moieties inducing accumulation of reactive oxygen species via glutathione depletion” (Bioorg Med Chem, 2018).
Activity calls are given as the source filed them. The rule behind the calls is not given here.

Assays:
U2OS [1] = assay: Induction of GSH depletion in human U2OS cells assessed as GSH content at 10 uM by GSH/GSSG-Glo assay relative to DMSO; assay type: functional
HeLa [2] = assay: Induction of GSH depletion in human HeLa cells at 0.1 to 100 uM after 1 hr by GSH/GSSG-glo assay relative to control; assay type: functional, cell-based
U2OS [3] = assay: Induction of ROS levels in human U2OS cells at 10 uM after 30 mins by CM-H2DCFDA/Hoechst-based fluorescence microscopic analysis relative to 10 uM CDNB; assay type: functional
HeLa [4] = assay: Induction of ROS levels in human HeLa cells at 10 uM after 1 hr by CM-H2DCFDA/Hoechst-based fluorescence microscopic analysis relative to 10 uM CDNB; assay type: functional
[5] = GSH reactivity in PBS buffer assessed as compound-GSH conjugate formation at 100 uM after 1 hr in presence of GSH by UHPLC/ESI-MS method; assay type: physicochemical
HeLa [6] = assay: Induction of GSH depletion in human HeLa cells at 10 uM after 1 hr by Ellman's reagent based assay; assay type: functional
HeLa [7] = assay: Induction of ROS induced cytotoxicity in human HeLa cells assessed as reduction in cell viability at 10 uM incubated for 24 hrs measured at 2 hrs interval by propidium iodide-staining based real time live cell imaging analysis; assay type: functional
HeLa [8] = assay: Induction of ROS induced cytotoxicity in human HeLa cells assessed as morphological changes at 10 uM incubated for 24 hrs measured after 2 hrs by propidium iodide-staining based real time live cell imaging analysis; assay type: functional
HeLa [9] = assay: Induction of ROS induced cytotoxicity in human HeLa cells assessed as reduction in cell viability at 2.5 to 20 uM incubated for 24 hrs measured at 2 hrs interval by propidium iodide-staining based live cell imaging analysis; assay type: functional
HeLa [10] = assay: Induction of GSH depletion in human HeLa cells at 20 uM after 1 hr by Ellman's reagent based assay; assay type: functional
HeLa [11] = assay: Induction of GSH depletion in human HeLa cells after 1 hr by GSH/GSSG-glo assay relative to control; assay type: functional, cell-based
HeLa [12] = assay: Induction of ROS induced cytotoxicity in human HeLa cells assessed as reduction in cell viability at 5 uM incubated for 24 hrs measured at 2 hrs interval by propidium iodide-staining based real time live cell imaging analysis; assay type: functional
[13] = GSH reactivity in PBS buffer assessed as retention time for compound-GSH conjugate formation at 100 uM after 1 hr in presence of GSH by UHPLC/ESI-MS method; assay type: physicochemical
HeLa [14] = assay: Induction of ROS induced cytotoxicity in human HeLa cells at 10 uM administered after 1 hr pretreatment with NAC incubated for 24 hrs measured at 2 hrs interval by propidium iodide staining based real time live cell imaging analysis; assay type: functional
HeLa [15] = assay: Induction of ROS induced cytotoxicity in human HeLa cells at 5 uM incubated for 24 hrs in presence of BSO measured at 2 hrs interval by propidium iodide staining based real time live cell imaging analysis; assay type: functional
HeLa [16] = assay: Induction of GSH depletion in human HeLa cells at 5 uM after 1 hr by Ellman's reagent based assay; assay type: functional
HeLa [17] = assay: Induction of ROS induced cytotoxicity in human HeLa cells at 2.5 uM incubated for 24 hrs in presence of BSO measured at 2 hrs interval by propidium iodide staining based real time live cell imaging analysis; assay type: functional
HeLa [18] = assay: Induction of ROS induced cytotoxicity in human HeLa cells at 5 uM administered after 1 hr pretreatment with NAC incubated for 24 hrs measured at 2 hrs interval by propidium iodide staining based real time live cell imaging analysis; assay type: functional

Structure (SMILES) | Activity (U2OS [1]) | Activity (HeLa [2]) | Activity (U2OS [3]) | also measured
O=C(Nc1ccccc1Br)c1c(Cl)nc(Cl)c(Cl)c1Cl | 36.07% | Active | 91% | 
COc1ccc2c(c1)CCCN2S(=O)(=O)c1ccc(-n2ncc(Cl)c(Cl)c2=O)cc1 | 29.49% |  | 52% | 
O=C(c1c(Cl)nc(Cl)c(Cl)c1Cl)N1CCOCC1 |  | Active |  | 
CCS(=O)(=O)c1ncc(Cl)c(C(=O)Nc2c(C(=O)Nc3ccccc3)oc3ccccc23)n1 | 39.62% |  | 83% | 
CCCS(=O)(=O)c1ncc(Cl)c(C(=O)Nc2nc(C)c(C(=O)OCC(C)C)s2)n1 | 23.2% |  | 130% | 
Cc1cccc(CS(=O)(=O)c2ncc(Cl)c(C(=O)Nc3nc4ccc(C)cc4s3)n2)c1 | 37.21% |  | 106% | 
CCS(=O)(=O)c1ncc(Cl)c(C(=O)Nc2ccc(-c3nc4ccc(C)cc4s3)cc2)n1 | 37.49% |  | 127% | 
COc1ccc2nc(NC(=O)c3nc(S(C)(=O)=O)ncc3Cl)sc2c1 | 30.72% |  | 107% | 
CCN(CC)C(=O)c1cccc(NS(=O)(=O)c2ccc(-n3ncc(Cl)c(Cl)c3=O)cc2)c1 | 30.8% | Active | 98% | 
O=C1CC(c2cccc3ccccc23)CC1=O | 24.43% |  | 110% | 
NC(=O)C1CCN(C(=O)c2nc(Cl)c(Cl)c(Cl)c2Cl)CC1 | 24.15% | Active | 55% | Activity (HeLa [4]): 98.33%; Activity [5]: Active; Activity (HeLa [6]): Active; Activity (HeLa [7]): Active
N#Cc1c(Cl)nc(N2CCOCC2)c(Cl)c1Cl | 22.32% |  | 82% | 
O=C(Cn1ncc(Cl)c(Cl)c1=O)N1CCCC1c1ccc2c(c1)OCCO2 (configuration not stated) |  | Active |  | Activity (HeLa [4]): 78.23%; Activity [5]: Active; Activity (HeLa [6]): Active; Activity (HeLa [8]): Active; Activity (HeLa [7]): Active
CC(NC(=O)Cn1ncc(Cl)c(Cl)c1=O)c1ccc(F)cc1 (configuration not stated) | 22.59% |  | 79% | 
CCCNC(=O)c1c(Cl)nc(Cl)c(Cl)c1Cl |  | Active |  | 
O=C(Cn1ncc(Cl)c(Cl)c1=O)N(C1=CCCCC1)C1CC1 | 38.9% |  | 70% | 
O=c1c(Cl)c(Cl)cnn1Cc1nc2ccccc2n1C(F)F | 31.86% |  | 111% | 
O=C(Cn1ncc(Cl)c(Cl)c1=O)N(Cc1ccco1)CC(F)(F)F | 35.84% |  | 75% | 
Cc1cccc(NC(=O)c2nc(Cl)c(Cl)c(Cl)c2Cl)c1C |  | Active |  | 
Clc1ncnc2c1oc1ccccc12 | 25.49% |  | 116% | 

Structure (SMILES) | Activity (U2OS [1]) | Activity (HeLa [2]) | Activity (U2OS [3]) | also measured
CC(=O)c1ccc(N2CCN(C(=O)Cn3ncc(Cl)c(Cl)c3=O)CC2)c(F)c1 | 30.95% | Active | 113% | 
COc1ccc(N(C)C(=O)c2nc(Cl)c(Cl)c(Cl)c2Cl)cc1OC |  | Active |  | 
COc1cccc(CNC(=O)COC(=O)c2nc(Cl)c(Cl)c(Cl)c2Cl)c1 |  | inactive |  | Activity (HeLa [4]): 12.14%; Activity [5]: Active; Activity (HeLa [6]): inactive; Activity (HeLa [9]): inactive
O=C(CN1CCCC1c1ccc2c(c1)OCCO2)Cn1ncc(Cl)c(Cl)c1=O (configuration not stated) | 19.2% |  | 163% | 
Cc1nnc(NC(=O)c2nc(S(=O)(=O)Cc3ccccc3)ncc2Cl)s1 | 34.32% |  | 92% | 
CC(C)N(C(=O)Cn1ncc(Br)c(Br)c1=O)c1ccccc1 | 20.43% | Active | 67% | 
O=c1c(Br)c(Br)cnn1CC(O)COc1cccc(Br)c1 (configuration not stated) |  | Active |  | 
O=C(Cn1ncc(Br)c(Br)c1=O)C12CC3CC(CC(C3)C1)C2 | 13.2% | Active | 88% | 
O=C(Cn1ncc(Cl)c(Cl)c1=O)N1CCc2cc(S(=O)(=O)N3CCCCC3)ccc21 | 35.26% |  | 104% | 
O=c1cc(Cn2ncc(Cl)c(Cl)c2=O)[nH]c(=O)[nH]1 |  | Active |  | Activity (HeLa [10]): 21.3%; Activity (HeLa [4]): 9.73%; Activity [5]: Active; Activity (HeLa [6]): inactive; Activity (HeLa [9]): inactive
CCCS(=O)(=O)c1ncc(Cl)c(C(=O)Nc2nc3ccc(F)cc3s2)n1 | 11.22% |  | 97% | 
COc1ccc(OC)c(NC(=O)c2c(Cl)nc(Cl)c(Cl)c2Cl)c1 | 39.27% | inactive | 69% | Activity (HeLa [4]): 73.78%; Activity (HeLa [11]): Dose-dependent effect; Activity (HeLa [12]): Active; Activity [5]: Active; Retention_time [13]: 3.48 min; Activity (HeLa [6]): inactive; Activity (HeLa [14]): inactive; Activity (HeLa [8]): Active; Activity (HeLa [15]): Active
CC(=O)c1c(C)[nH]c(C(=O)Cn2ncc(Cl)c(Cl)c2=O)c1C | 32.83% | Active | 100% | 
COCCOc1ccc(CNC(=O)c2nc(Cl)c(Cl)c(Cl)c2Cl)cc1 |  | Active |  | 
CCOC(=O)C1CCN(C(=O)Cn2ncc(Cl)c(Cl)c2=O)CC1 | 35.47% |  | 95% | 
O=C(NCc1ccc(Cl)cc1)c1c(Cl)nc(Cl)c(Cl)c1Cl | 30.39% | Active | 87% | 
O=c1c(Cl)c(Cl)cnn1-c1ccc(S(=O)(=O)NCc2cc(-c3ccccc3)no2)cc1 | 24.31% |  | 129% | 
CN(C(=O)Cn1ncc(Br)c(Br)c1=O)C1CCCc2ccccc21 (configuration not stated) | 9.56% | Active | 60% | Activity (HeLa [4]): 63.96%; Activity (HeLa [16]): 23.1%; Activity (HeLa [17]): Active; Activity (HeLa [12]): Active; Activity [5]: Active; Retention_time [13]: 3.41 min; Activity (HeLa [6]): 38%; Activity (HeLa [18]): inactive; Activity (HeLa [8]): Active
O=[N+]([O-])c1ccc(Cl)c([N+](=O)[O-])c1 |  |  |  | Activity (HeLa [6]): Active
O=c1c(Br)c(Br)cnn1Cc1ccccc1 | 37.49% | Active | 77% | 
